Results as given in patent US20100055168A1, “CATIONIC LIPIDS AND USES THEREOF” (ABBOTT LABORATORIES, priority 2008, published 2010).

assay: Ribogreen assay for siRNA encapsulation efficiency of Lipid-Based Particles; type: physicochemical; settings: in vitro formulation a: Cationic lipid/Example 56/DSPC/Chol 45/10/15/30 wt %, Lipid:siRNA 25:1
Procedure: The mixing solution of cationic lipids, cholesterol, non-cationic lipids and PEG-lipids was prepared in ethanol (total concentration at 10 mg/mL). siSTABLE (purchased from ThermoFisher) (sense-5′ GGGGAAAGCUGGCAAGAUUUU-3′ SEQ ID NO: 1) antisense-5′-AAUCUUGCCAGCUUUCCCCUU-3′ SEQ ID NO: 2) % stock solution was prepared in 10 mg/mL of solution by dissolving 10 mg siRNA in 1 mL of RNAse-free UltraPure Water. The calculated amount of siRNA solution was added to 1 mL of citrate buffer (pH 4.0, 20 mM), to provide an siRNA concentration of 0.2 mg/mL, and warmed to 60° C. The calculated amount of lipid solution was warmed to 60° C., transferred to a 0.5 mL syringe with 28½ gauge needle, and injected into the citrate buffer with stirring at 60° C. After 3 minutes, 3 mL of PBS solution at room temperature (pH 7.4) was added into the lipid mixture with stirring. The Lipid-Based Particle solution was cooled to room temperature.
(§1) The siRNA concentrations were measured using Quanti-iT RiboGreen RNA reagent (Molecular Probes, (R11490)). Vesicle sizes were characterized by dynamic light scattering with a DynaPro™ Plate Reader (Wyatt Technology) in 96-well half-area UV plate (Coring) after diluting the formulation sample (20 μL) in phosphate buffered saline (80 μL) at a pH of about 7-8. A 1% agarose gel-based assay was used for analyzing nuclease degradation and protection. Encapsulation efficiency (EE) was calculated using data obtained from a RiboGreen assay.
RNA concentration and encapsulation efficiency were determined using a Quant-iT® Ribogreen RNA reagent and kit available from Invitrogen. The siRNA was released from the Lipid-Based Particle using one of the following reagents: ethanol, Triton X-100, or phenol/chloroform. The siRNA concentration is quantified using fluorescent reading at 480 nm/520 nm.
A round bottom flask was submerged into a 65° C. water bath. Citrate buffer (37.5 ml) of pH 4.0 was pipetted into the flask. The solution was stirred by a magnetic stirring bar at a speed of 900 rpm. Both the pH 4.0 citrate buffer and the lipid solution were pre-warmed in the 65° C. water bath for about 3 minutes. A siRNA solution (0.5 ml) was pipetted into the pH 4.0 citrate buffer. The 12.5 ml lipid mixture solution was injected through a 27 gauge needle into the citrate buffer in about 30 seconds. The needle tip was inserted into the solution during the injection. The resulting solution was stirred for 5 minutes at a speed of 900 rpm. The flask was pulled up from the water bath and a 50 ml pH 7.4 PBS buffer was added into the flask. The final solution was further mixed at a speed of 900 rpm for 5 minutes. For the diafiltration process, a dialysis filter (Millipore, 100K, Cat #PXB100C50) was used to remove ethanol in the above solution. When the volume was reduced to 20 ml during the initial diafiltration, 20 ml of pH 7.4 PBS was added to the sample solution. The diafiltration was continued until the volume was reduced to 20 ml. The diafiltration process was repeated 4 times. The volume of the sample solution was reduced to about 12 ml and pH 7.4 PBS was added to make the final volume of 15 ml. The 15 ml solution was filtered sequentially through the 0.45 and 0.22 μm sterile PVDF membrane filters (Millipore) and immediately transferred into a sterile vial.

% Encapsulation Efficiency [%]	Structure (SMILES)
88.4	CCCCC/C=C\C/C=C\CCCCCCCC(=O)OCC(COC(=O)CCCCCCC/C=C\C/C=C\CCCCC)NCCCN1CCCC1 [Example 22, (9Z,9′Z,12Z,12′Z)-2-(3-(pyrrolidin-1-yl)propylamino)propane-1,3-diyl dioctadeca-9,12-dienoate]

same assay, conditions: in vitro formulation b: Cationic lipid/PEG-Chol/DSPC/Chol 45/10/15/30 wt %, Lipid:siRNA 25:1

% Encapsulation Efficiency [%]	Structure (SMILES)
91.7	CCCCC/C=C\C/C=C\CCCCCCCCOCC(COCCCCCCCC/C=C\C/C=C\CCCCC)CN1CCCC1 [Example 24, 1-(3-((9Z,12Z)-octadeca-9,12-dienyloxy)-2-(((9Z,12Z)-octadeca-9,12-dienyloxy)methyl)propyl)pyrrolidine]
93.0	CCCCC/C=C\C/C=C\CCCCCCCCOCC(COCCCCCCCC/C=C\C/C=C\CCCCC)COC(=O)NCCN(CC)CC [Example 28, 3-[(9Z,12Z)-octadeca-9,12-dienyloxy]-2-{[(9Z,12Z)-octadeca-9,12-dienyloxy]methyl}propyl 2-(diethylamino)ethylcarbamate]

Second part, the compound before the results:

Structure (SMILES)	% Encapsulation Efficiency [%]
CCCCC/C=C\C/C=C\CCCCCCCCOCC(CNCCCN1CCCC1)COCCCCCCCC/C=C\C/C=C\CCCCC [Example 26, N-(3-[(9Z,12Z)-octadeca-9,12-dienyloxy]-2-{[(9Z,12Z)-octadeca-9,12-dienyloxy]methyl}propyl)-N-(3-pyrrolidin-1-ylpropyl)amine]	99.9
CCCCC/C=C\C/C=C\CCCCCCCCOCC(COCCCCCCCC/C=C\C/C=C\CCCCC)N(C)CC1CCN(C)CC1 [Example 16, N-methyl-N-((1-methylpiperidin-4-yl)methyl)-N-(2-((9Z,12Z)-octadeca-9,12-dienyloxy)-1-(((9Z,12Z)-octadeca-9,12-dienyloxy)methyl)ethyl)amine]	93.1
CCCCC/C=C\C/C=C\CCCCCCCCOCC(COCCCCCCCC/C=C\C/C=C\CCCCC)COC(=O)NCCN(C)C [Example 30, 3-[(9Z,12Z)-octadeca-9,12-dienyloxy]-2-{[(9Z,12Z)-octadeca-9,12-dienyloxy]methyl}propyl 2-(dimethylamino)ethylcarbamate]	95.0
CCCCC/C=C\C/C=C\CCCCCCCCOCC(COCCCCCCCC/C=C\C/C=C\CCCCC)CN(C)C [Example 27, N,N-dimethyl-N-(3-[(9Z,12Z)-octadeca-9,12-dienyloxy]-2-{[(9Z,12Z)-octadeca-9,12-dienyloxy]methyl}propyl)amine]	71.9
CCCCC/C=C\C/C=C\CCCCCCCCOCC(COCCCCCCCC/C=C\C/C=C\CCCCC)NCCCNCCCCNCCCN [Example 25, N-(3-aminopropyl)-N′-{3-[(2-[(9Z,12Z)-octadeca-9,12-dienyloxy]-1-{[(9Z,12Z)-octadeca-9,12-dienyloxy]methyl}ethyl)amino]propyl}butane-1,4-diamine]	92.3
CCCCC/C=C\C/C=C\CCCCCCCCOCC(COCCCCCCCC/C=C\C/C=C\CCCCC)COC(=O)NCCN1CCCC1 [Example 29, 3-[(9Z,12Z)-octadeca-9,12-dienyloxy]-2-{[(9Z,12Z)-octadeca-9,12-dienyloxy]methyl}propyl 2-pyrrolidin-1-ylethylcarbamate]	95.0

assay: Particle sizing assay of in vitro formulations (dynamic light scattering, DynaPro plate reader); type: physicochemical; settings: in vitro formulation a: Cationic lipid/Example 56/DSPC/Chol 45/10/15/30 wt %, Lipid:siRNA 25:1
Procedure: as §1
Particle sizes and size distributions (PDI) were characterized by using dynamic light scattering (DLS). A DLS plate reader (Dynapro™, Wyatt Technology) was used for the DLS measurement. This DLS plate reader uses an 830 nm laser and the scattering angle is 158°. It also can control temperature from 4° C. to 70° C. A 96-well format was employed for the samples.
Samples for DLS analysis were prepared by mixing 20 μL of each sample stock solution with 80 μL PBS directly in the 96-well plate (#3697, Coming). Sample mixing was accomplished using a microplate shaker (Orbis, Mikura Ltd.). Plates were read at 20° C. with an acquisition time of 50 seconds for each sample, and data was analyzed with Wyatt Technology's Dynamics V6 software. To rule out potential multiple scattering artifacts, a second plate at […] reduced sample concentrations was independently prepared by mixing 5 μL stock solutions with 95 μL PBS. Under our experimental conditions the results at the two concentrations were very similar, and the final reported result for each sample represents the average of values obtained from the two plates.

Size [nm]	PDI (size distribution)	Structure (SMILES)
120.8	–	CCCCC/C=C\C/C=C\CCCCCCCC(=O)OCC(COC(=O)CCCCCCC/C=C\C/C=C\CCCCC)NCCCN1CCCC1 [Example 22, (9Z,9′Z,12Z,12′Z)-2-(3-(pyrrolidin-1-yl)propylamino)propane-1,3-diyl dioctadeca-9,12-dienoate]
134	–	CCCCC/C=C\C/C=C\CCCCCCCCOCC(COCCCCCCCC/C=C\C/C=C\CCCCC)N(C)C [Example 2, N,N-dimethyl-N-(2-((9Z,12Z)-octadeca-9,12-dienyloxy)-1-(((9Z,12Z)-octadeca-9,12-dienyloxy)methyl)ethyl)amine]
170	0.20	CCCCC/C=C\C/C=C\CCCCCCCCOCC(COCCCCCCCC/C=C\C/C=C\CCCCC)N1CCCC1 [Example 1, 1-(2-((9Z,12Z)-octadeca-9,12-dienyloxy)-1-(((9Z,12Z)-octadeca-9,12-dienyloxy)methyl)ethyl)pyrrolidine]
143	0.14	CCCCC/C=C\C/C=C\CCCCCCCCOCC(COCCCCCCCC/C=C\C/C=C\CCCCC)N1CCOCC1 [Example 5, 4-(2-((9Z,12Z)-octadeca-9,12-dienyloxy)-1-(((9Z,12Z)-octadeca-9,12-dienyloxy)methyl)ethyl)morpholine]

same assay, conditions: in vitro formulation b: Cationic lipid/PEG-Chol/DSPC/Chol 45/10/15/30 wt %, Lipid:siRNA 25:1

Size [nm]	Structure (SMILES)
130	CCCCC/C=C\C/C=C\CCCCCCCCOCC(COCCCCCCCC/C=C\C/C=C\CCCCC)N(C)CC1CCN(C)CC1 [Example 16, N-methyl-N-((1-methylpiperidin-4-yl)methyl)-N-(2-((9Z,12Z)-octadeca-9,12-dienyloxy)-1-(((9Z,12Z)-octadeca-9,12-dienyloxy)methyl)ethyl)amine]
